Source: PMC7195871 (ACS synthetic biology, 2018)

How the values were obtained:
[1] = biological target: T1, PCM-F (pivalyl-CoA mutase fusion protein) (Xanthobacter versatilis, UniProt A7IQE5+A7IQE6); test: mutase conversion assay in crude E. coli lysate; assay type: biochemical; details: vitamin B12-dependent mutase; without G-protein chaperone
T1 sequence (A7IQE5 1-559): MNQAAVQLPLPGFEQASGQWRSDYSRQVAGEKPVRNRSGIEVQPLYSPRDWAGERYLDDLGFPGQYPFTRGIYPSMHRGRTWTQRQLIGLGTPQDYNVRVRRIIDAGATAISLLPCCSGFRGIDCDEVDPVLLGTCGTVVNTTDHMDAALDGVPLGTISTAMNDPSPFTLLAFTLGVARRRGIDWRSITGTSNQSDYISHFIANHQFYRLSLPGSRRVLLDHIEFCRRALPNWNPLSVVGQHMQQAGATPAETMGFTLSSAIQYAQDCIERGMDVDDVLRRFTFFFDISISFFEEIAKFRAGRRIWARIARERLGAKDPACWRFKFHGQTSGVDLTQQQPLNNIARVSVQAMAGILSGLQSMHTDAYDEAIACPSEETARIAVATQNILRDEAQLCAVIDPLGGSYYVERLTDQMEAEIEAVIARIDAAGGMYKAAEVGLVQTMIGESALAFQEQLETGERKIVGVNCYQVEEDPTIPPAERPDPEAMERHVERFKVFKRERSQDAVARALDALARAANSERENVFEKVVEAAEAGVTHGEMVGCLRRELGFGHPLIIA
T1 sequence (A7IQE6 1-148): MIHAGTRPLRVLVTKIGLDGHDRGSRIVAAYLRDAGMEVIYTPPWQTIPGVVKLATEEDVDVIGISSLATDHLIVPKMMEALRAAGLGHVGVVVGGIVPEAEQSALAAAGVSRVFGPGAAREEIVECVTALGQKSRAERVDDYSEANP

[2] = biological target: T2, Ralstonia sp. ADH (Ralstonia sp. DSMZ 6428, UniProt C0IR58); test: alcohol dehydrogenase assay, aldehyde reduction; assay type: biochemical; details: reduction of pivaldehyde to pivalcohol
T2 sequence (C0IR58 1-249): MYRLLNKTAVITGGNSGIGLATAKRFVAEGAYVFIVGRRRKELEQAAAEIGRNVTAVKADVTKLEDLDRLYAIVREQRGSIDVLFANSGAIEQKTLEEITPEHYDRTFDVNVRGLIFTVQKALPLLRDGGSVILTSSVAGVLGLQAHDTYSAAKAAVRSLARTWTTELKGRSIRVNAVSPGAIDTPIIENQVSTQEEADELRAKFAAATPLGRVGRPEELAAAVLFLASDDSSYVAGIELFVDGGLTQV

| SMILES | mutase conversion assay in crude E. coli lysate [1] | alcohol dehydrogenase assay, aldehyde reduction [2] |
| --- | --- | --- |
| CC(C)CC(=O)SCCNC(=O)CCNC(=O)[C@H](O)C(C)(C)COP(=O)(O)OP(=O)(O)OC[C@H]1O[C@@H](n2cnc3c(N)ncnc32)[C@H](O)[C@@H]1OP(=O)(O)O [isovaleryl-CoA] | significant activity in converting isovaleryl-CoA to pivalyl-CoA in crude cell lysates |  |
| CC(C)(C)C=O [pivaldehyde] |  | Ralstonia sp. ADH showed the highest activity toward pivaldehyde |
| CC(C)(C)C(=O)SCCNC(=O)CCNC(=O)[C@H](O)C(C)(C)COP(=O)(O)OP(=O)(O)OC[C@H]1O[C@@H](n2cnc3c(N)ncnc32)[C@H](O)[C@@H]1OP(=O)(O)O [pivalyl-CoA] | significant activity in converting isovaleryl-CoA to pivalyl-CoA in crude cell lysates |  |
